Values after ≈ are worked out from the molar mass of the structure shown. Where a SMILES comes first, the peptide text is derived from it. The star is where a group is joined. Boc = CC(C)(C)OC(=O)*; OBn = c1ccc(CO*)cc1
Experiments:
[1] = tested on: Candida albicans; experiment: Antifungal activity at Candida albicans; type: functional
[2] = tested on: Cryptococcus neoformans; experiment: Antifungal activity at Cryptococcus neoformans; type: functional
[3] = tested on: Benjaminiella poitrasii; experiment: Antifungal activity at Benjaminiella poitrasii; type: functional
[4] = tested on: Yarrowia lipolytica; experiment: Antifungal activity at Yarrowia lipolytica; type: functional
[5] = tested on: Fusarium oxysporum; experiment: Antifungal activity at Fusarium oxysporum; type: functional
[6] = tested on: Escherichia coli; experiment: Antibacterial activity at Escherichia coli; type: functional
[7] = tested on: Staphylococcus aureus; experiment: Antibacterial activity at Staphylococcus aureus; type: functional
[8] = tested on: Candida albicans; experiment: Antifungal activity at Candida albicans assessed as concentration required to lower the MIC of fluconazole from 32 to 1 ug/mL after 48 hrs; type: functional
[9] = tested on: Escherichia coli; experiment: Antibacterial activity at Escherichia coli assessed as concentration required to lower the MIC of erythromycin from 64 to 1 ug/mL after 24 hrs; type: functional
[10] = tested on: MCF7; experiment: Antiproliferative activity against human MCF7 cells by MTT assay; type: functional, cell-based
[11] = tested on: HEK293; experiment: Antiproliferative activity against HEK293 cells by MTT assay; type: cell-based; conditions: Homo sapiens
[12] = tested on: MCF7; experiment: Antiproliferative activity against human MCF7 cells at upto 80 uM by MTT assay; type: functional, cell-based
[13] = tested on: HEK293; experiment: Antiproliferative activity against HEK293 cells at upto 80 uM by MTT assay; type: cell-based; conditions: human

SMILES	MIC [1] [µg/mL]	MIC [2] [µg/mL]	MIC [3] [µg/mL]	MIC [4] [µg/mL]	MIC [5] [µg/mL]	MIC [6] [µg/mL]	MIC [7] [µg/mL]	MIC [8] [µg/mL]	MIC [9] [µg/mL]	IC50 [10] [µM]	IC50 [11] [µM]	Activity [12]	Activity [13]
C[C@H](CCCO)[C@H]1CC[C@H]2[C@@H]3[C@H](O)C[C@@H]4C[C@@H](NC(=O)CCNC(=O)CCNC(=O)CCNC(=O)CCNC(=O)OC(C)(C)C)CC[C@]4(C)[C@H]3C[C@H](O)[C@]12C	128 (≈ 165 µM)	> 128	> 128	> 128	64 (≈ 82.3 µM)	> 128	> 128	12	20	> 1000	800	Non-toxic	Non-toxic
C[C@H](CCCO)[C@H]1CC[C@H]2[C@@H]3[C@H](O)C[C@@H]4C[C@@H](NC(=O)CCNC(=O)CCNC(=O)CCNC(=O)CCN)CC[C@]4(C)[C@H]3C[C@H](O)[C@]12C	64 (≈ 94.4 µM)	> 128	64 (≈ 94.4 µM)	> 128	> 128	32 (≈ 47.2 µM)	> 128	6	8	> 1000	800	Non-toxic	Non-toxic
C[C@H](CCC(=O)O)[C@H]1CC[C@H]2[C@@H]3[C@H](O)C[C@@H]4C[C@H](O)CC[C@]4(C)[C@H]3C[C@H](O)[C@]12C [CHOLIC ACID]	> 128	> 128	128 (≈ 313 µM)	> 128	> 128	> 128	> 128	64	64	50	> 1000	–	–
CC(=O)OCCC[C@@H](C)[C@H]1CC[C@H]2[C@@H]3[C@H](OC(C)=O)C[C@@H]4C[C@@H](NC(=O)CNC(=O)CNC(=O)CNC(=O)CNC(=O)OC(C)(C)C)CC[C@]4(C)[C@H]3C[C@H](O)[C@]12C	64 (≈ 79.4 µM)	> 128	32 (≈ 39.7 µM)	> 128	64 (≈ 79.4 µM)	64 (≈ 79.4 µM)	> 128	12	24	500	200	Non-toxic	Non-toxic
COC(=O)CC[C@@H](C)[C@H]1CC[C@H]2[C@@H]3[C@H](O)C[C@@H]4C[C@@H](NC(=O)CNC(=O)CNC(=O)CNC(=O)CNC(=O)OC(C)(C)C)CC[C@]4(C)[C@H]3C[C@H](O)[C@]12C	16 (≈ 21.3 µM)	> 128	64 (≈ 85.3 µM)	> 128	64 (≈ 85.3 µM)	96 (≈ 128 µM)	32 (≈ 42.7 µM)	8	24	300	600	Non-toxic	Non-toxic
C[C@@H]1[C@H](O)[C@@H](C)/C=C/C=C/C=C/C=C/C=C/C=C/C=C/[C@H](O[C@@H]2O[C@H](C)[C@@H](O)[C@H](N)[C@@H]2O)C[C@@H]2O[C@](O)(C[C@@H](O)C[C@@H](O)[C@H](O)CC[C@@H](O)C[C@@H](O)CC(=O)O[C@H]1C)C[C@H](O)[C@H]2C(=O)O [AMPHOTERICIN B]	2 (≈ 2.16 µM)	16 (≈ 17.3 µM)	16 (≈ 17.3 µM)	16 (≈ 17.3 µM)	16 (≈ 17.3 µM)	–	–	–	–	–	–	–	–
CC(C)(C)OC(=O)NCCC(=O)NCCC(=O)NCCC(=O)NCCC(=O)OCc1ccccc1	> 128	–	–	–	–	128 (≈ 260 µM)	–	128	64	–	–	–	–
CC(C)(C)OC(=O)NCC(=O)NCC(=O)NCC(=O)NCC(=O)OCc1ccccc1 (Boc-GGGG-OBn)	> 128	–	–	–	–	128 (≈ 293 µM)	–	128	128	–	–	–	–
CC(C)(C)OC(=O)NCCC(=O)NCCC(=O)NCCC(=O)NCCC(=O)O	> 128	–	–	–	–	64 (≈ 159 µM)	–	64	> 128	–	–	–	–
CC(=O)OCCC[C@@H](C)[C@H]1CC[C@H]2[C@@H]3[C@H](OC(C)=O)C[C@@H]4C[C@@H](NC(=O)CNC(=O)CNC(=O)CNC(=O)CN)CC[C@]4(C)[C@H]3C[C@H](O)[C@]12C	64 (≈ 90.7 µM)	> 128	16 (≈ 22.7 µM)	> 128	32 (≈ 45.3 µM)	> 128	64 (≈ 90.7 µM)	6	8	150	800	Non-toxic	Non-toxic
COC(=O)CC[C@@H](C)[C@H]1CC[C@H]2[C@@H]3[C@H](O)C[C@@H]4C[C@@H](NC(=O)CCNC(=O)CCNC(=O)CCNC(=O)CCNC(=O)OC(C)(C)C)CC[C@]4(C)[C@H]3C[C@H](O)[C@]12C	32 (≈ 39.7 µM)	> 128	16 (≈ 19.8 µM)	96 (≈ 119 µM)	64 (≈ 79.4 µM)	> 128	> 128	6	16	100	> 1000	Non-toxic	Non-toxic
CC(C)(C)OC(=O)NCC(=O)NCC(=O)NCC(=O)NCC(=O)O (Boc-GGGG-OH)	> 128	–	–	–	–	64 (≈ 185 µM)	–	64	128	–	–	–	–
NCC(=O)NCC(=O)NCC(=O)NCC(=O)O (H-GGGG-OH)	128 (≈ 520 µM)	–	–	–	–	> 128	–	> 128	64	–	–	–	–
CN(C)[C@@H]1C(O)=C(C(N)=O)C(=O)[C@@]2(O)C(O)=C3C(=O)c4c(O)cccc4[C@@](C)(O)[C@H]3C[C@@H]12 [TETRACYCLINE]	–	–	–	–	–	8 (≈ 18 µM)	16 (≈ 36 µM)	–	–	–	–	–	–
NCCC(=O)NCCC(=O)NCCC(=O)NCCC(=O)O	> 128	–	–	–	–	128 (≈ 423 µM)	–	128	> 128	–	–	–	–
COC(=O)CC[C@@H](C)[C@H]1CC[C@H]2[C@@H]3[C@H](O)C[C@@H]4C[C@@H](NC(=O)CNC(=O)CNC(=O)CNC(=O)CN)CC[C@]4(C)[C@H]3C[C@H](O)[C@]12C	32 (≈ 49.2 µM)	> 128	64 (≈ 98.5 µM)	> 128	128 (≈ 197 µM)	> 128	96 (≈ 148 µM)	6	12	500	80	Non-toxic	Non-toxic
CC(=O)OCCC[C@@H](C)[C@H]1CC[C@H]2[C@@H]3[C@H](OC(C)=O)C[C@@H]4C[C@@H](NC(=O)CCNC(=O)CCNC(=O)CCNC(=O)CCNC(=O)OC(C)(C)C)CC[C@]4(C)[C@H]3C[C@H](O)[C@]12C	32 (≈ 37.1 µM)	> 128	64 (≈ 74.2 µM)	96 (≈ 111 µM)	> 128	> 128	32 (≈ 37.1 µM)	8	10	150	80	Non-toxic	Non-toxic
CC[C@H]1OC(=O)[C@H](C)[C@@H](O[C@H]2C[C@@](C)(OC)[C@@H](O)[C@H](C)O2)[C@H](C)[C@@H](O[C@@H]2O[C@H](C)C[C@H](N(C)C)[C@H]2O)[C@](C)(O)C[C@@H](C)C(=O)[C@H](C)[C@@H](O)[C@]1(C)O [ERYTHROMYCIN]	–	–	–	–	–	64 (≈ 87.2 µM)	32 (≈ 43.6 µM)	–	–	–	–	–	–
OC(Cn1cncn1)(Cn1cncn1)c1ccc(F)cc1F [FLUCONAZOLE]	32 (≈ 104 µM)	32 (≈ 104 µM)	32 (≈ 104 µM)	64 (≈ 209 µM)	8 (≈ 26.1 µM)	–	–	–	–	–	–	–	–
